# Laboratory results published in paper PMC6525040 (ChemMedChem, 2019).
# How the values were obtained:
# [1] = system: relaxed covalently-closed circular dsDNA plasmid (pRS306); experiment: dsDNA intercalation assay; format: binding; settings: 10 μM; DMSO vehicle defined as 0, saturation of the endpoint = 1
# [2] = biological target: T1, Human RAD51 protein binding to ssDNA (Homo sapiens, UniProt Q06609); experiment: RAD51-DNA binding assay; settings: gel shift, 0.5 μM RAD51
# T1 sequence (Q06609 1-339): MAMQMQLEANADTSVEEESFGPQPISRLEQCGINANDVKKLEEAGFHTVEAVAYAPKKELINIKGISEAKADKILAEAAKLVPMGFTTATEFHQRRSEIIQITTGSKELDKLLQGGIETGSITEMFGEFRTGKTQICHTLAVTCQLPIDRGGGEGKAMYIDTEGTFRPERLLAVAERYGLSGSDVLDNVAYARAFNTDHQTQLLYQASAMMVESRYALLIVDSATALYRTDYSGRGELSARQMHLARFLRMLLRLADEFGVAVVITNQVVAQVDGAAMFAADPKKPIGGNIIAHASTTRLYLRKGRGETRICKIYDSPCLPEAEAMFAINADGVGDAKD
effect on RAD51 binding to ssDNA / RAD51-ssDNA nucleoprotein filaments (in words) [2],Compound,intercalation score [1]
–,CCN(CC)CCCC(C)Nc1ccnc2cc(Cl)ccc12 (centres unmarked) [chloroquine],1
inhibited,O=C1C(Cl)=C(N2CCOCC2)C(=O)N1c1ccc(Cl)c(Cl)c1 [RI-1],–
